Measurements reported in patent US4058624A, “Broad spectrum antibacterial compositions containing tris (hydroxymethyl)-aminomethane and diphenyl and loweralkyl substituted diphenyl polyamines” (Merck & Co., Inc., priority 1976, dated 1977).

Assay: Acute toxicity, oral LD50 mice (Table I)
Details: mouse, in vivo
Description: The low toxicity of these compounds makes them especially attractive for use where contact with skin surfaces or possible ingestion renders the use of irritating or toxic materials inadvisable.

SMILES: Cc1cc(C)c(CCC(CCc2c(C)cc(C)cc2C)NCCCNCCCN)c(C)c1.Cl.Cl.Cl [1-[1,5-di-(2,4,6-trimethylphenyl)-3-pentyl]-1,5,9-triazanonane trihydrochloride]
- LD50: 1150 mg/kg

SMILES: CC(C)(C)c1ccc(CCCC(CCCc2ccc(C(C)(C)C)cc2)NCCCNCCCNCCCN)cc1.Cl.Cl.Cl.Cl [1-[1,7-bis-(4-t-butylphenyl)-4-heptyl]-1,5,9,13-tetrazatridecane tetrahydrochloride]
- LD50: 1550 mg/kg

SMILES: Cc1ccc(C(C)(C)C)cc1CCCC(CCCc1cc(C(C)(C)C)ccc1C)NCCNCCNCCN.Cl.Cl.Cl.Cl [1-[1,7-di-(2-methyl-5-t-butylphenyl)-4-heptyl]-1,4,7,10-tetrazadecane tetrahydrochloride]
- LD50: 2070 mg/kg

SMILES: Cc1ccc(C(C)(C)C)cc1CCCC(CCCc1cc(C(C)(C)C)ccc1C)NCCCNCCCN.Cl.Cl.Cl [1-[1,7-di-(2-methyl-5-t-butylphenyl)-4-heptyl]-1,5,9-triazanonane trihydrochloride]
- LD50: 1650 mg/kg
